Results as given in patent US12428412B2 (DANA-FARBER CANCER INSTITUTE, INC., priority 2018, dated 2025).
“Also recorded” adds a separate entry of the source.

Assays:
Kelly cells = experiment: ATPlite cell growth inhibition assay, Kelly cell lines treated 72 hours; type: cell-based; conditions: for Kelly NB cell growth inhibition: 72 hours, ATPlite, normalized to DMSO; for IC50: ND: not detected
Protocol: Compounds CPD 1 to CPD 22 were tested via ATPlite™ assay (ATPlite™ 1000 assay kit, PerkinElmer®, USA) using standard protocol. […] The signal is normalized to DMSO treated cells.

HAT (EP300) domain = molecular target: T1, HAT (EP300) domain (Homo sapiens, UniProt Q09472); experiment: AlphaScreen assay, HAT (EP300) domain; type: binding
T1 sequence (Q09472 1287-1663 limits assumed): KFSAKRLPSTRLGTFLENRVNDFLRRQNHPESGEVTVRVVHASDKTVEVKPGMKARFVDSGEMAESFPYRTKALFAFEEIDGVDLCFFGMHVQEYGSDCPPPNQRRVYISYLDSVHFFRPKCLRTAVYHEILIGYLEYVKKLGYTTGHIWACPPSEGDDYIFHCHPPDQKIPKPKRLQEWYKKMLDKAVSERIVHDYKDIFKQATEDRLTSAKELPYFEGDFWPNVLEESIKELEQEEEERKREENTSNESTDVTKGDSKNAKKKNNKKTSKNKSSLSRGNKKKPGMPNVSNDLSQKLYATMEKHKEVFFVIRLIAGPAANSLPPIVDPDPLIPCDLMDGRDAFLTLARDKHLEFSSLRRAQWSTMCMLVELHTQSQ
Protocol: The AlphaScreen™ assay was performed in 384-well plate format using white AlphaPlate (PerkinElmer®, USA), and transfer of pre-diluted compound (100 nL) was performed using a Janus Workstation (PerkinElmer®, USA). All subsequent steps were carried out in assay buffer (50 mM 4-(2-hydroxyethyl)-1-piperazineethanesulfonic acid (HEPES), pH 7.5, 0.1% (wt/vol) bovine serum albumin (BSA) and 0.01% (vol/vol) Tween-20). In brief, 10 μL of assay buffer containing enzyme (2 nM Final) was pre-incubated for 15 min with dilutions of compound. The enzyme reaction was initiated by the addition of substrate (5 μL) consisting of acetyl Co-A 2-OG (5 μM Final).
FAS final concentration was 10 μM. Histone tail-GGK Biotin final concentration was 100 nM Final. The enzyme reaction was allowed to proceed for 30 minutes and was stopped by the addition of 5 μL of assay buffer containing ethylenediaminetetraacetic acid (EDTA) (40 mM) and NaCl (1200 mM). The final concentration of dimethyl sulfoxide (DMSO) was 1%. Streptavidin donor beads (0.08 mg/mL) and protein-A-conjugated acceptor beads (0.08 mg/mL) were preincubated for 1 h with antibody to methyl mark (300 ng/mL Final), and the presence of histone H3 product acetylation mark was detected using the preincubated AlphaScreen™ beads (5 μL). Detection was allowed to proceed for 2 hours at rt, and the assay plates were read on the Envision™ 2104 plate reader. Data were normalized to the (no-enzyme) control, and the IC50 values were determined via nonlinear regression curve fit using GraphPad Prism (FIG. 4E-FIG. 4H).
AlphaScreen™ assay was used to determine the binding of inventive degrader compound toward both CRBN and HAT domain. The experimental protocol is the same as in Example 26.

cereblon (CRBN) = cereblon (CRBN) (Homo sapiens, UniProt Q96SW2); experiment: AlphaScreen assay, cereblon (CRBN); type: binding
cereblon (CRBN), sequence (Q96SW2 whole entry): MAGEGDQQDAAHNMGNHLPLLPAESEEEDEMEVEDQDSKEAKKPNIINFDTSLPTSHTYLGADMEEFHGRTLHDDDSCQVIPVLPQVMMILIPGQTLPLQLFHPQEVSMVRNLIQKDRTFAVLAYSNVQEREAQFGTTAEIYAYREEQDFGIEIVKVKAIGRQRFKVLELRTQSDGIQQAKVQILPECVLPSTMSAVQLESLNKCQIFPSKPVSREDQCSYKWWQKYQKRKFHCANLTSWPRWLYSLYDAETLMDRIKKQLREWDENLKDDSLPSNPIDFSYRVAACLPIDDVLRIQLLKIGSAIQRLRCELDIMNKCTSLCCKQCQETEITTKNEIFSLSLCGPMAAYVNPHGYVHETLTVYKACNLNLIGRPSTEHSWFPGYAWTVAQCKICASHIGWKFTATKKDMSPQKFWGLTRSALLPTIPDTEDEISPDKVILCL
From the text: An AlphaLISA® assay for EP300 catalytic function (FIG. 3B) and an AlphaScreen™ assay for EP300 bromodomain and cereblon (CRBN) using biotinylated tagged small molecules as a probe for EP300 bromodomain and CRBN, respectively, were developed (FIG. 3C).
AlphaScreen™ assay was used to determine the binding of inventive degrader compound toward both CRBN and HAT domain.

[1] = in mice; cited from earlier work
Kelly NB cells = experiment: EP300/CBP inhibitors in Kelly NB cells (colony formation, CellTiter-Glo growth assays); type: cell-based
Protocol: The effects of several EP300/CBP inhibitors, C646, CBP30 and A485 were tested in Kelly NB cells. (FIG. 2B).

Compound | Kelly NB cell growth inhibition (Kelly cells) | IC50 (Kelly cells) | binding to cereblon (CRBN) (cereblon (CRBN)) | further results
C[C@H](N(Cc1ccc(F)cc1)C(=O)CN1C(=O)O[C@@]2(CCc3cc(NC(=O)CCc4ccc(NC(=O)CCCCCCCCCCCNc5ccc6c(c5)C(=O)N(C5CCC(=O)NC5=O)C6=O)cc4)ccc32)C1=O)C(F)(F)F (stereo partly drawn) [CPD 13, 12-((2-(2,6-dioxopiperidin-3-yl)-1,3-dioxoisoindolin-5-yl)amino)-N-(4-(3-(((R)-3′-(2-((4-fluorobenzyl)((S)-1,1,1-trifluoropropan-2-yl)amino)-2-oxoethyl)-2′,4′-dioxo-2,3-dihydrospiro[indene-1,5′-oxazolidin]-5-yl)amino)-3-oxopropyl)phenyl)dodecanamide] | Cell growth inhibition was observed | 1.39 µM |  | 
C[C@H](N(Cc1ccc(F)cc1)C(=O)CN1C(=O)O[C@@]2(CCc3cc(NC(=O)CCOCCOCCOCCOCCOCCOCCNc4cccc5c4C(=O)N(C4CCC(=O)NC4=O)C5=O)ccc32)C1=O)C(F)(F)F (stereo partly drawn) [CPD 2, 1-((2-(2,6-dioxopiperidin-3-yl)-1,3-dioxoisoindolin-4-yl)amino)-N—((R)-3′-(2-((4-fluorobenzyl)((S)-1,1,1-trifluoropropan-2-yl)amino)-2-oxoethyl)-2′,4′-dioxo-2,3-dihydrospiro[indene-1,5′-oxazolidin]-5-yl)-3,6,9,12,15,18-hexaoxahenicosane-21-amide] | did not inhibit cellular growth | 3.42 µM | bind | binding to HAT (EP300) domain (HAT (EP300) domain): bind
Nc1cccc2c1C(=O)N(C1CCC(=O)NC1=O)C2=O (stereo not shown) [pomalidomide, reference compound] |  |  | bind | 
O=C1CCC(N2C(=O)c3ccccc3C2=O)C(=O)N1 (stereo not shown) [thalidomide, reference compound] |  |  | bind | 
C[C@H](N(Cc1ccc(F)cc1)C(=O)CN1C(=O)O[C@@]2(CCc3cc(NC(=O)CCCNC(=O)CCCCCCCCCCCNc4ccc5c(c4)C(=O)N(C4CCC(=O)NC4=O)C5=O)ccc32)C1=O)C(F)(F)F (stereo partly shown) | outperformed positive control A485; also recorded: Cell growth inhibition was observed | 0.31 µM |  | 
CNC(=O)Nc1ccc2c(c1)CC[C@@]21OC(=O)N(CC(=O)N(Cc2ccc(F)cc2)[C@@H](C)C(F)(F)F)C1=O [A485, N-[(4-fluorophenyl)methyl]-2-{(1R)-5-[(methylcarbamoyl)amino]-2′,4′-dioxo-2,3-dihydro-3′H-spiro[indene-1,5′-[1,3]oxazolidin]-3′-yl}-N-[(2S)-1,1,1-trifluoropropan-2-yl]acetamide] |  |  | no binding was observed | half life [1]: 42 min; binding to HAT (EP300) domain (HAT (EP300) domain): bind; apoptosis (Kelly NB cells; Kelly NB cells, increasing doses): induction of apoptosis; growth inhibition (Kelly NB cells; Kelly NB cells, increasing doses, CellTiter-Glo): growth inhibition; growth changes in cellular models of NB compared with C646 and CBP30 (Kelly NB cells; at submicromolar levels): superior to other known EP300/CBP inhibitors
CC(=O)Nc1ccc2c(c1)CC[C@@]21OC(=O)N(CC(=O)N(Cc2ccc(F)cc2)[C@H](C)CNC(=O)CCCCCCCCCCCNc2ccc3c(c2)C(=O)N(C2CCC(=O)NC2=O)C3=O)C1=O (stereo partly drawn) [CPD 15, N—((R)-2-(2-((R)-5-acetamido-2′,4′-dioxo-2,3-dihydrospiro[indene-1,5′-oxazolidin]-3′-yl)-N-(4-fluorobenzyl)acetamido)propyl)-12-((2-(2,6-dioxopiperidin-3-yl)-1,3-dioxoisoindolin-5-yl)amino)dodecanamide] | Cell growth inhibition was observed | 1.76 µM |  | 
CC(=O)Nc1ccc2c(c1)CC[C@@]21OC(=O)N(CC(=O)N(Cc2ccc(F)cc2)[C@@H](C)CNC(=O)CCCCCCCCCCCNc2ccc3c(c2)C(=O)N(C2CCC(=O)NC2=O)C3=O)C1=O (stereo partly drawn) [CPD 16, N—((S)-2-(2-((R)-5-acetamido-2′,4′-dioxo-2,3-dihydrospiro[indene-1,5′-oxazolidin]-3′-yl)-N-(4-fluorobenzyl)acetamido)propyl)-12-((2-(2,6-dioxopiperidin-3-yl)-1,3-dioxoisoindolin-5-yl)amino)dodecanamide] | outperformed positive control A485; also recorded: Cell growth inhibition was observed | 0.27 µM |  | 
CC(N(Cc1ccc(F)cc1)C(=O)CN1C(=O)O[C@@]2(CCc3cc(NC(=O)CCCNC(=O)CCCCCNc4ccc5c(c4)C(=O)N(C4CCC(=O)NC4=O)C5=O)ccc32)C1=O)C(F)(F)F (stereo in doubt) [CPD 10, 6-((2-(2,6-dioxopiperidin-3-yl)-1,3-dioxoisoindolin-5-yl)amino)-N-(4-(((R)-3′-(2-((4-fluorobenzyl)((R)-1,1,1-trifluoropropan-2-yl)amino)-2-oxoethyl)-2′,4′-dioxo-2,3-dihydrospiro[indene-1,5′-oxazolidin]-5-yl)amino)-4-oxobutyl)hexanamide] | Cell growth inhibition was observed | 1.15 µM |  | 
